Measurements: paper PMC12848680, “Microbial Cross-Talk: Unlocking the Cytochalasin Diversity from a Termite-Associated Xylaria” (JACS Au, 2025)
Values after ≈ are worked out from the molar mass of the structure shown. Where two headings read alike, the source gives them in different places.

Experiments:
[1] = test system: CHO-K1 (chinese hamster ovary cells); assay: Cytotoxicity assay (MTT, 5 d) on CHO-K1; type: cell-based; details: Cricetulus griseus, CHO-K1, 120 h
Experimental: (§1) Cytotoxicity assay: A549 (human lung carcinoma cell line; ACC 107) and CHO-K1 (chinese hamster ovary cells; ACC 110) were obtained from the German Collection of Microorganisms and Cell Cultures (DSMZ) and cultured under the conditions recommended by the depositor. Cells were propagated in Dulbeccos’s Modified Eagle’s Medium (DMEM) and Ham’s F12 medium, respectively, supplemented with 10% fetal bovine serum (FBS), and seeded at 6×10^3 cells per well of 96-well plates in 120 μL of complete medium. After 2 h of equilibration (37 °C, 5% CO2), the cells were treated with a serial dilution of cytochalasins in 60 µL growth medium. Cytochalasins, doxorubicin as reference, as well as the solvent control were tested as duplicates in two independent experiments. After 5 d of incubation (37 °C, 5% CO2), a total of 20 μL of 5 mg/ml MTT (thiazolyl blue tetrazolium bromide) in phosphate -buffered saline (PBS) were added to each well […]
(§2) and the cells were further incubated for 2 h at 37 °C before the supernatant was discarded.
(§3) Subsequently, the cells were washed with 100 μL of PBS and treated with 100 μl of 2-propanol/10 N HCl (250:1) to dissolve formazan granules. Cell viability was measured as percentage relative to the respective solvent control by measuring the absorbance at 570 nm using a microplate reader (Tecan Infinite M200Pro). GraphPad Prism (version 10.0.3, GraphPad, Boston, MA, USA) was used for sigmoidal curve fitting to determine the IC50 values.

[2] = test system: A549 (human lung carcinoma cell line); assay: Cytotoxicity assay (MTT, 5 d) on A549; type: cell-based; details: for IC50: Homo sapiens, A549, 120 h, MTT, 5 d incubation; for Cytotoxic activity against A549 (in words): positive control doxorubicin
Experimental: as §1, §2, §3

[3] = in vitro; type: in vitro ADME, mouse; details: for microsomal CLint: C57BL/6, mouse, microsomes; for half-life: mouse, read-out: Mouse liver microsome t1/2
Experimental: Assays in liver microsomes: For metabolic stability, the compound (1 μM) was incubated with 0.5 mg/mL pooled mouse (C57BL/6) microsomes (Xenotech, Kansas City, USA), 2 mM NADPH, 10 mM MgCl2 at 37 °C for 120 min on a microplate shaker. The metabolic stability of testosterone, verapamil and ketoconazole were determined in parallel to confirm the enzymatic activity of mouse/rat liver microsomes. The incubation was stopped after defined time points by precipitation of aliquots of the incubation mixture with 2 volumes of cold internal standard solution (15 nM diphenhydramine in 10% methanol/acetonitrile). Samples were stored on ice until the end of the incubation and precipitated protein was removed by centrifugation (15 min, 4 °C, and 4,000 g). Concentration of the remaining test compound at the different time points was analyzed by HPLC-MS/MS (Vanquish Flex coupled to a TSQ Altis Plus, Thermo Fisher, Dreieich, Germany) and used to determine half-life (t1/2). […]

[4] = in vitro; type: in vitro ADME, mouse; details: 1 μM compound, pooled CD-1 mouse plasma, read-out: Mouse plasma t1/2
Experimental: Plasma stability assays: To determine stability in plasma, the compound (1 μM) was incubated with pooled CD-1 mouse plasma (Neo Biotech, Nanterre, France). Samples were taken by mixing aliquots with 4 volumes of cold internal standard solution (12.5 nM diphenhydramine in 10% methanol/acetonitrile). The plasma stability of procain, propantheline and diltiazem were determined in parallel to confirm the enzymatic activity. Samples were stored on ice until the end of the incubation and precipitated protein was removed by centrifugation (15 min, 4 °C, 4,000 g, two centrifugation steps). Concentration of the remaining test compound at the different time points was analyzed by HPLC-MS/MS (Vanquish Flex coupled to a TSQ Altis Plus, Thermo Fisher, Dreieich, Germany). […]

[5] = test system: E. coli ΔacrB (JW0451-2); assay: Antibacterial activity against E. coli ΔacrB; type: cell-based; details: Escherichia coli, read-out: E. coli ΔacrB (JW0451-2) MIC
[6] = test system: Staphylococcus aureus Newman; assay: Antibacterial activity against S. aureus Newman; type: cell-based; details: Table S22
[7] = Table S22, intrinsic clearance calculated from microsomal metabolism data
[8] = Table S22, 1 μM compound, 0.5 mg/mL pooled C57BL/6 microsomes
[9] = Table 1, intrinsic clearance from microsomal metabolism data
[10] = Table 1, 1 μM compound, 0.5 mg/mL pooled C57BL/6 microsomes, 120 min

SMILES: CC(=O)OC1C2OC2C(C)(O)C(=O)C(C)CC=CC2C3OC3(C)C(C)C3C(Cc4cccc(Cl)c4)NC(=O)C213 (stereo not shown) [Compound 14, m-chloro-19,20-epoxycytochalasin Q]
- IC50 ([1]; Table S22, 5 d incubation): 0.69 ± 0.07 µg/mL (≈ 1.24 µM)
- IC50 ([2]; Table S22): 0.11 ± 0.05 µg/mL (≈ 0.197 µM)
- microsomal CLint [3, 7]: 45.7 ± 1.6 µL/min/mg
- half-life [3, 8]: 30.4 ± 1.1 min
- half-life at 1 μM ([4]; Table S22): > 240 min
- MIC [5]: > 64 µg/mL
- MIC [6]: > 64 µg/mL

SMILES: CC1CC=CC2C3OC3(C)C(C)C3C(Cc4cccc(Br)c4)NC(=O)C23C(O)C2OC2C(C)(O)C1=O (stereo not shown) [Compound 19, m-bromo-deacetyl-19,20-epoxycytochalasin Q]
- IC50 ([1]; Table S22, 5 d incubation): 0.63 ± 0.24 µg/mL (≈ 1.12 µM)
- IC50 ([2]; Table S22): > 37 µg/mL
- microsomal CLint [3, 7]: 60 ± 4 µL/min/mg
- half-life [3, 8]: 23.1 ± 1.5 min
- half-life at 1 μM ([4]; Table S22): > 240 min
- MIC [5]: > 64 µg/mL
- MIC [6]: > 64 µg/mL

SMILES: CC(=O)OC1C2OC2C(C)(O)C(=O)C(C)CC=CC2C3OC3(C)C(C)C3C(Cc4cccc(Br)c4)NC(=O)C213 (stereo not shown) [Compound 18, m-bromo-19,20-epoxycytochalasin Q]
- IC50 ([1]; Table 1, 5 d incubation): 0.94 ± 0.21 µg/mL (≈ 1.56 µM)
- IC50 ([2]; Table 1): 0.19 ± 0.01 µg/mL (≈ 0.315 µM)
- IC50 ([2]; Table S22): 0.31 ± 0.01 µg/mL (≈ 0.515 µM)
- microsomal CLint [3, 9]: 77 ± 19 µL/min/mg
- half-life [3, 10]: 19 ± 4 min
- half-life at 1 μM ([4]; Table 1): > 240 min
- MIC [5]: > 64 µg/mL
- MIC [6]: > 64 µg/mL

SMILES: CC(=O)O[C@@H]1/C=C/[C@@](C)(O)C(=O)[C@@H](C)C/C=C/[C@H]2[C@@H]3O[C@]3(C)[C@@H](C)[C@H]3[C@H](Cc4cccc(Cl)c4)NC(=O)[C@@]312 [Compound 13, m-chloro-cytochalasin Q]
- IC50 ([1]; Table S22, 5 d incubation): 0.41 ± 0.06 µg/mL (≈ 0.756 µM)
- IC50 ([2]; Table S22): 0.14 ± 0.02 µg/mL (≈ 0.258 µM)
- microsomal CLint [3, 7]: 95 ± 15 µL/min/mg
- half-life [3, 8]: 15 ± 3 min
- half-life at 1 μM ([4]; Table S22): > 240 min
- MIC [5]: > 64 µg/mL
- MIC [6]: > 64 µg/mL

SMILES: CC1=C(C)C2C(Cc3cccc(Br)c3)NC(=O)C23C(O)C2OC2C(C)(O)C(=O)C(C)CC=CC3C1O (stereo not shown) [Compound 17, m-bromo-deacetyl-19,20-epoxycytochalasin C]
- IC50 ([1]; Table 1, 5 d incubation): 0.49 ± 0.12 µg/mL (≈ 0.874 µM)
- IC50 ([2]; Table 1): 0.14 ± 0.02 µg/mL (≈ 0.25 µM)
- IC50 ([2]; Table S22): 0.19 ± 0.02 µg/mL (≈ 0.339 µM)
- Cytotoxic activity against A549 (in words) [2]: lower nanomolar activities
- microsomal CLint [3, 9]: 43 ± 4 µL/min/mg
- half-life [3, 10]: 32 ± 3 min
- half-life at 1 μM ([4]; Table 1): > 240 min
- MIC [5]: > 64 µg/mL
- MIC [6]: > 64 µg/mL

SMILES: CC(=O)O[C@@H]1/C=C/[C@@](C)(O)C(=O)[C@@H](C)C/C=C/[C@H]2[C@H](O)C(C)=C(C)[C@H]3[C@H](Cc4ccccc4)NC(=O)[C@@]123 [Compound 2, cytochalasin C]
- IC50 ([1]; Table S22, 5 d incubation): 1.48 ± 1.38 µg/mL (≈ 2.92 µM)
- IC50 ([2]; Table S22): 3.34 ± 0.92 µg/mL (≈ 6.58 µM)
- microsomal CLint [3, 7]: 88 ± 7 µL/min/mg
- half-life [3, 8]: 15.8 ± 1.2 min
- half-life at 1 μM ([4]; Table S22): > 240 min
- MIC [5]: > 64 µg/mL
- MIC [6]: > 64 µg/mL

SMILES: CC(=O)OC1C2OC2C(C)(O)C(=O)C(C)CC=CC2C(O)C(C)=C(C)C3C(CC(=O)O)NC(=O)C213 (stereo not shown) [Compound 22, xylachalasin A]
- IC50 ([1]; Table 1, 5 d incubation): > 37 µg/mL
- IC50 ([2]; Table 1): > 37 µg/mL
- microsomal CLint [3, 7]: < 11.6 µL/min/mg
- Mouse liver microsome t1/2 [3, 8]: >120 min
- half-life [3, 10]: > 120 min
- half-life at 1 μM ([4]; Table 1): > 240 min
- MIC [5]: > 64 µg/mL
- MIC [6]: > 64 µg/mL

SMILES: C#CCCC1(CCC(=O)OC2C(=C)C(C)C3C(Cc4ccccc4)NC(=O)C34C2C=CCC(C)C(=O)C(C)(O)C2OC2C4OC(C)=O)N=N1 (stereo not shown) [Compound 26, 7-diazirin-19,20-epoxycytochalasin D]
- IC50 ([1]; Table S22, 5 d incubation): 7.02 ± 1.16 µg/mL (≈ 10.4 µM)
- IC50 ([2]; Table S22): 10.3 µg/mL (≈ 15.3 µM)
- microsomal CLint [3, 7]: 1020 ± 120 µL/min/mg
- half-life [3, 8]: 1.4 ± 0.1 min
- half-life at 1 μM ([4]; Table S22): > 240 min
- MIC [5]: > 64 µg/mL
- MIC [6]: > 64 µg/mL

SMILES: CC1CC=CC2C3OC3(C)C(C)C3C(Cc4cccc(Cl)c4)NC(=O)C23C(O)C2OC2C(C)(O)C1=O (stereo not shown) [Compound 15, m-chloro-deacetyl-19,20-epoxycytochalasin Q]
- IC50 ([1]; Table 1, 5 d incubation): 0.81 ± 0.1 µg/mL (≈ 1.57 µM)
- IC50 ([2]; Table 1): 0.04 ± 0.03 µg/mL (≈ 0.0775 µM)
- IC50 ([2]; Table S22): 0.08 ± 0.03 µg/mL (≈ 0.155 µM)
- Cytotoxic activity against A549 (in words) [2]: lower nanomolar activities
- microsomal CLint [3, 9]: 39 ± 3 µL/min/mg
- half-life [3, 10]: 36 ± 3 min
- half-life at 1 μM ([4]; Table 1): > 240 min
- MIC [5]: > 64 µg/mL
- MIC [6]: > 64 µg/mL

SMILES: CC(=O)OC1C2OC2C(C)C(=O)C(C)CC=CC2C3OC3(C)C(C)C3C(Cc4cccc(Cl)c4)NC(=O)C213 (stereo not shown) [Compound 16, m-chloro-18-desoxy-19,20-epoxycytochalasin Q]
- IC50 ([1]; Table 1, 5 d incubation): 0.41 ± 0.1 µg/mL (≈ 0.756 µM)
- IC50 ([1]; Table S22, 5 d incubation): 3.13 ± 2.94 µg/mL (≈ 5.77 µM)
- IC50 ([2]; Table 1): 0.08 ± 0.02 µg/mL (≈ 0.148 µM)
- IC50 ([2]; Table S22): 1.02 ± 0.13 µg/mL (≈ 1.88 µM)
- microsomal CLint [3, 9]: 984 ± 105 µL/min/mg
- half-life [3, 10]: 1.4 ± 0.1 min
- half-life at 1 μM ([4]; Table 1): > 240 min
- MIC [5]: > 64 µg/mL
- MIC [6]: > 64 µg/mL

SMILES: CC1CC=CC2C3OC3(C)C(C)C3C(Cc4ccccc4Br)NC(=O)C23C(=O)C2OC2C(C)(O)C1=O (stereo not shown) [Compound 20, o-bromo-19,20-epoxy-21-oxocytochalasin Q]
- IC50 ([1]; Table S22, 5 d incubation): 1.38 ± 0.04 µg/mL (≈ 2.47 µM)
- IC50 ([2]; Table S22): 0.62 ± 0.04 µg/mL (≈ 1.11 µM)
- microsomal CLint [3, 7]: 234 ± 28 µL/min/mg
- half-life [3, 8]: 6 ± 0.7 min
- half-life at 1 μM ([4]; Table S22): > 240 min
- MIC [5]: > 64 µg/mL
- MIC [6]: > 64 µg/mL

SMILES: CC(=O)OC1C2OC2C(C)(O)C(=O)C(C)CC=CC2C3OC3(C)C(C)C3C(Cc4ccccc4)NC(=O)C213 (stereo not shown) [Compound 6, 19,20-epoxycytochalasin Q]
- IC50 ([1]; Table S22, 5 d incubation): 0.72 ± 0.3 µg/mL (≈ 1.38 µM)
- IC50 ([2]; Table S22): 0.14 ± 0.02 µg/mL (≈ 0.267 µM)
- microsomal CLint [3, 7]: 97 ± 24 µL/min/mg
- half-life [3, 8]: 15 ± 4 min
- half-life at 1 μM ([4]; Table S22): > 240 min
- MIC [5]: > 64 µg/mL
- MIC [6]: > 64 µg/mL

SMILES: CC(=O)OC1C2OC2C(C)(O)C(=O)C(C)CC=CC2C(O)C(C)=C(C)C3C(Cc4ccccc4)NC(=O)C213 (stereo not shown) [Compound 3, 19,20-epoxycytochalasin C]
- IC50 ([1]; Table 1, 5 d incubation): 0.51 ± 0.27 µg/mL (≈ 0.974 µM)
- IC50 ([2]; Table 1): 0.34 ± 0.13 µg/mL (≈ 0.649 µM)
- Cytotoxic activity against A549 (in words) [2]: comparable to the positive control
- microsomal CLint [3, 9]: 31.6 ± 1.4 µL/min/mg
- half-life [3, 10]: 43.9 ± 2 min
- half-life at 1 μM ([4]; Table 1): > 240 min
- MIC [5]: > 64 µg/mL
- MIC [6]: > 64 µg/mL
